Key:
[1] = test system: normal NK cells expanded with K562-aAPC; test: percent inhibition of viability; higher = more inhibition; conditions: 72 h, IL-2 2.5 ng/mL
Experimental: (§1)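 Drug sensitivity and resistance testing on K562-aAPC-expanded normal NK cells: 5 concentrations (10-fold steps over a 10,000-fold range), 72 h at 37 °C, viability by CellTiter-Glo normalised to DMSO and benzethonium chloride controls; DSS from the fitted curve.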

[2] = test system: DERL-7 (IL-2 2.5 ng/mL); test: as above; conditions: 72 h
[3] = test system: IMC-1 (IL-2 20 ng/mL); test: as above; conditions: 72 h
[4] = test system: KAI3 (IL-2 2.5 ng/mL); test: as above; conditions: 72 h
[5] = test system: KHYG-1 (IL-2 2.5 ng/mL); test: as above; conditions: 72 h
[6] = test system: NK-92 (IL-2 2.5 ng/mL); test: as above; conditions: 72 h
[7] = test system: NK-YS (IL-2 2.5 ng/mL); test: as above; conditions: 72 h
[8] = test system: NKL (IL-2 2.5 ng/mL); test: as above; conditions: 72 h
[9] = test system: SNK-6 (IL-2 2.5 ng/mL); test: as above; conditions: 72 h
[10] = test system: YT (IL-2 2.5 ng/mL); test: as above; conditions: 72 h
[11] = test system: normal primary NK cells, pool 1 (3 donors) (IL-2 2.5 ng/mL); test: as above; conditions: 72 h
[12] = test system: normal primary NK cells, pool 1 (3 donors), resting (IL-2 0 ng/mL); test: as above; conditions: 72 h
[13] = test system: normal primary NK cells, pool 2 (3 donors) (IL-2 2.5 ng/mL); test: as above; conditions: 72 h
[14] = test system: normal primary NK cells, pool 3 (3 donors) (IL-2 2.5 ng/mL); test: as above; conditions: 72 h
[15] = test system: normal NK cells expanded with K562-aAPC; test: drug sensitivity score (DSS) (DSS units); higher = more sensitive; extreme values may be limits of the assay; conditions: 72 h; IL-2 2.5 ng/mL
Experimental: as §1

[16] = test system: DERL-7 (IL-2 2.5 ng/mL); test: as above; conditions: 72 h
[17] = test system: IMC-1 (IL-2 20 ng/mL); test: as above; conditions: 72 h
[18] = test system: KAI3 (IL-2 2.5 ng/mL); test: as above; conditions: 72 h
[19] = test system: KHYG-1 (IL-2 2.5 ng/mL); test: as above; conditions: 72 h
[20] = test system: NK-92 (IL-2 2.5 ng/mL); test: as above; conditions: 72 h
[21] = test system: NK-YS (IL-2 2.5 ng/mL); test: as above; conditions: 72 h
[22] = test system: NKL (IL-2 2.5 ng/mL); test: as above; conditions: 72 h
[23] = test system: SNK-6 (IL-2 2.5 ng/mL); test: as above; conditions: 72 h
[24] = test system: YT (IL-2 2.5 ng/mL); test: as above; conditions: 72 h
[25] = test system: normal primary NK cells, pool 1 (3 donors) (IL-2 2.5 ng/mL); test: as above; conditions: 72 h
[26] = test system: normal primary NK cells, pool 1 (3 donors), resting (IL-2 0 ng/mL); test: as above; conditions: 72 h
[27] = test system: normal primary NK cells, pool 2 (3 donors) (IL-2 2.5 ng/mL); test: as above; conditions: 72 h
[28] = test system: normal primary NK cells, pool 3 (3 donors) (IL-2 2.5 ng/mL); test: as above; conditions: 72 h

Cc1csc(-c2nnc(Nc3ccc(Oc4ncccc4-c4ccnc(N)n4)cc3)c3ccccc23)c1 [AMG-900] (max concentration tested 1000 nM)
percent inhibition of viability [%]
Conditions	0.1 nM	1 nM	10 nM	100 nM	1000 nM
[1]	-2.04	-5.9	-2.98	39.7	33
[2]	-3.26	-1.85	31	70.8	53.9
[3]	-5.67	-6.98	18.2	21.9	63.9
[4]	-5.87	-5.96	19.4	20.4	43.4
[5]	-2.26	-0.47	44.5	33.3	59.8
[6]	-9.63	-11.2	17.6	27.6	52.6
[7]	-5.77	-3.39	59.6	59.6	71.8
[8]	-16.8	-17.8	-16.6	-9.7	-5.52
[9]	15.5	7.4	68.4	57.2	72.8
[10]	-0.32	-0.28	13	16	24.9
[11]	-4.05	-2.86	-4.93	-3.83	-3.7
[12]	-1.37	-7.12	5.07	10.8	11.6
[13]	-8.07	-6.23	-6.7	-3.83	-5.92
[14]	-7.42	4.77	-7.75	-0.31	-0.94

Conditions	drug sensitivity score
[15]	6.8
[16]	17.1
[17]	6.18
[18]	5.44
[19]	12.6
[20]	6.74
[21]	20.2
[22]	0
[23]	23
[24]	3.19
[25]	0
[26]	0.61
[27]	0
[28]	0

CNC(=O)c1ccc2cc([C@@]3(O)CCn4cncc43)ccc2c1 [Orteronel] (max concentration tested 10000 nM)
percent inhibition of viability [%]
Conditions	1 nM	10 nM	100 nM	1000 nM	10000 nM
[1]	-5.71	-7.96	-3.03	-3.58	-6.05
[2]	-6.34	0.71	-1.69	-1	-1.19
[3]	-2.16	2.99	-1.56	2.85	-4.82
[4]	-7.13	-0.59	-2.47	-4.32	-11.3
[5]	-5.73	-2.14	-3.55	0.58	-8.03
[6]	-11.2	0.34	-4.73	4.66	-21.7
[7]	-3.4	-3.35	-1.88	-0.21	-5.45
[8]	-5	-13	-12.1	0.4	-4.85
[9]	12.8	29.5	-7.71	18.8	-9.24
[10]	-1.09	-0.82	-3	6.56	-4.8
[11]	-3.93	-7.55	-2.24	5.97	4.41
[12]	-13	-1.84	15.9	8.47	14.4
[13]	-7.25	-8.3	-5.11	-0.18	-0.97
[14]	-9.86	-10.5	-4.17	-8.67	-0.69

Conditions	drug sensitivity score
[15]	0
[16]	0
[17]	0
[18]	0
[19]	0
[20]	0
[21]	0
[22]	0
[23]	0
[24]	0
[25]	0
[26]	2.88
[27]	0
[28]	0

O=C(NOCCO)c1ccc2cncn2c1Nc1ccc(I)cc1F [GDC-0623] (max concentration tested 2500 nM)
percent inhibition of viability [%]
Conditions	0.25 nM	2.5 nM	25 nM	250 nM	2500 nM
[1]	-1.46	-4.58	0.15	3.69	-1.38
[2]	1.53	2.87	4.11	20.2	49.3
[3]	-4.83	-0.98	-7.63	-7.39	-5.55
[4]	-1.35	0.84	4.63	16.2	24.8
[5]	-2.63	1.52	26.2	53.6	53.1
[6]	-2.15	-3.76	-6.69	-7.14	-20.9
[7]	-3.81	-3.05	2.89	12.4	10.4
[8]	-5.9	-3.61	37.9	65.4	62.6
[9]	6.88	-4.38	-13.8	-14.5	-33.3
[10]	0.15	-1.83	-0.28	6.96	-0.89
[11]	-9.21	-4.95	0.24	3.46	15.2
[12]	-7.6	7.27	7.92	9.81	15.9
[13]	0.23	-3.52	5.29	8.89	14.6
[14]	-5.35	-2.96	-2.99	19.2	1.26

Conditions	drug sensitivity score
[15]	0
[16]	4.82
[17]	0.89
[18]	2.53
[19]	13
[20]	0.89
[21]	0.81
[22]	16.7
[23]	0
[24]	0
[25]	0.57
[26]	0.97
[27]	0.54
[28]	0

— the supplement of paper PMC5908809
